For eleven molecules, IC50, solubility and EC50 results are on record in ChEMBL document CHEMBL6121067, “Mitophagy in Neurodegenerative Diseases: Mechanisms of Action and the Advances of Drug Discovery” (J Med Chem, 2025).

In brackets after ≈: the same amount, converted by molar mass.

In data set [1] the target is T1, Ubiquitin carboxyl-terminal hydrolase 30 (Homo sapiens, UniProt Q70CQ3).
T1 sequence (Q70CQ3 whole entry): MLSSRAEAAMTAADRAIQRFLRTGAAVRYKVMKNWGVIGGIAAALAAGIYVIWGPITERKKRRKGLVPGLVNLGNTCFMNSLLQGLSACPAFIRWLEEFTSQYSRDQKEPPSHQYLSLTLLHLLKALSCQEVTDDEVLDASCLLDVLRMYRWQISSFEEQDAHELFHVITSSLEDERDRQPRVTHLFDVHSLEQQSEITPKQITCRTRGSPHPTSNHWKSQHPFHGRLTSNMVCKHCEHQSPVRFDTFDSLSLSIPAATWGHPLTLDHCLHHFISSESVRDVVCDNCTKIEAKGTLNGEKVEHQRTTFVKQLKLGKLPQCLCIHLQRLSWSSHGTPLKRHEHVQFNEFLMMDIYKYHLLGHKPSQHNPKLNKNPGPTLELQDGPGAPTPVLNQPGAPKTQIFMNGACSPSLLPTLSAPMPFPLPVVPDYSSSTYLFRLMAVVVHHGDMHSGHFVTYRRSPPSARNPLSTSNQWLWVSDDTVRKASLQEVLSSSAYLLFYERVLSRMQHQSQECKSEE
Put plainly: Inhibition of USP30 (unknown origin).

The nature of data set [2]: Solubility of compound at pH 6.8 incubated for 4 hrs by HPLC or LC-MS/MS analysis. It counts as physicochemical. The settings on record: buffer.
Data set [3] addresses Serine/threonine-protein kinase PINK1, mitochondrial (Homo sapiens, UniProt Q9BXM7). Put plainly: Activation of full length recombinant PINK1 (unknown origin) extracted from Escherichia coli BL21 (DE3) by UV absorbance based analysis.

Chain of Serine/threonine-protein kinase PINK1, mitochondrial (Q9BXM7 whole entry): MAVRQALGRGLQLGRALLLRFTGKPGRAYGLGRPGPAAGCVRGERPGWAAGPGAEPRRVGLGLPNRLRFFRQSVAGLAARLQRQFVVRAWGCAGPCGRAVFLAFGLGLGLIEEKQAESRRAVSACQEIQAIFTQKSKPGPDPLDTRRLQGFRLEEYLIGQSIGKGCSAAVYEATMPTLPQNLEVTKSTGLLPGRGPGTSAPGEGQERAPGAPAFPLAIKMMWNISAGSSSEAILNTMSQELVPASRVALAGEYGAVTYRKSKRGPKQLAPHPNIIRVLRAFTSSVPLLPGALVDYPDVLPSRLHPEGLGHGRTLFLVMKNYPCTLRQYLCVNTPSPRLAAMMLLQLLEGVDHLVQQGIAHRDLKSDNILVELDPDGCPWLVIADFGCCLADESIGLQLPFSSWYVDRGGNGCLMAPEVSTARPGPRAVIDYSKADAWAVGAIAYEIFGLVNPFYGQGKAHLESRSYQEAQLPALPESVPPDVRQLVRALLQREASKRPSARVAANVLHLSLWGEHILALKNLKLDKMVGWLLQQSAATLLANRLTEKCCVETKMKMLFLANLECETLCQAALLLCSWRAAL

In data set [1], `COc1cc(C(=O)N[C@@H]2CCN(C#N)C2)ccc1-c1cnn(C)c1` came in with an IC50 of 15 nM. In data set [1], `N#CN1CC[C@@H](NC(=O)N2CC(c3ccn(-c4ccccc4)n3)C2)C1` had an IC50 of 15 nM.

Molecule `N#CN1CC[C@H](CNC(=O)c2cc(-c3cccc(Cl)c3)no2)C1` gave a half-inhibitory concentration (IC50) in data set [1] of 15 nM. For the molecule `CC(C)[C@H]1Cn2ncc(-c3ccc(C(=O)N4CCCc5ccccc54)cc3)c2CN1C(=O)Cc1ccccc1`, the solubility at 4 h in data set [2] worked out at 3.6 µg/mL (≈ 6.94 µM). Besides, in data set [3], the EC50 was 2900 nM. The matching figures for `C[C@@H](C(=O)N1Cc2c(-c3ccc(C(=O)N4CCCc5ccccc54)cc3)cnn2C[C@@H]1C)c1ccccc1`: 1.5 µg/mL (≈ 2.97 µM) and 1500 nM. Molecule `N#CN1CC[C@@H](NC(=O)c2cc(-c3ccccc3Oc3ccccc3)n[nH]2)C1` came in with an IC50 in data set [1] of 1.5 nM. In data set [1], `CCn1c(-c2ccc(OCC(=O)O)c(OC)c2)nc(-c2ccccc2)c1-c1ccccc1` registered an IC50 of 5120 nM. This IC50 lies about 3400-fold higher than the previous one. For the molecule `CO[C@@H](C(=O)N1Cc2c(-c3ccc(C(=O)N4CCCc5ccccc54)cc3)cnn2C[C@@H]1C(C)C)c1ccccc1`, the solubility at 4 h in data set [2] came to 3.8 µg/mL (≈ 6.93 µM). The EC50 in data set [3] is 40 nM. Take `CC(=O)N1Cc2c(-c3ccc(C(=O)N4CCCc5ccccc54)cc3)cnn2C[C@@H]1C`: the EC50 in data set [3] was 14500 nM. In turn, `CO[C@@H](C(=O)N1Cc2c(-c3ccc(C(=O)N4CCCc5ccccc54)cc3)cnn2C[C@@H]1C(C)C)c1cnn(C)c1` came in with a solubility at 4 h in data set [2] of 65 µg/mL (≈ 118 µM). In addition, in data set [3], the EC50 was 150 nM. In data set [1], `COc1cc(-c2nc(-c3ccccc3)c(-c3ccccc3)n2C2CC2)ccc1OCC(=O)O` displayed an IC50 of 8430 nM.

The IC50 is the midpoint of a concentration-inhibition curve. For orientation: solubility means the dissolved amount per volume that the medium holds. Read a high solubility as a readily soluble substance. A word on the EC50: it is the concentration at which the effect is half-maximal.
